In US20230112845A1, “COMPOSITIONS OF BERBERINE URSODE[…] METHODS THEREOF FOR TREATING FATTY LIVER DISEASE, DIABETES AND HYPERLIPIDEMIA” (SHENZHEN HIGHTIDE BIOPHARMACEUTICAL LTD., priority 2020, published 2023):

Tested on: subjects with a history of hypercholesterolemia
Test: Phase 1b randomized placebo-controlled dose-ranging study: serum lipids, lipoproteins, HbA1c, ALT
Format: in vivo, human
Set-up: TG (serum level) / TC (serum level) / Non-HDL-c (serum level) / HDL-c (serum level): unit not given here; LDL-c (serum level): unit: mmol/L
Description: A double-blind, randomized, placebo-controlled, dose ranging study was carried out that compared three doses of berberine ursodeoxycholate (BUDCA, a.k.a. HTD1801) to placebo in a cohort of subjects with a history of hypercholesterolemia and serum LDL-c levels above 2.59 mmol/L (>99.9 mg/dL). BUDCA was administered in two divided doses each day for 28 days. The primary endpoints of the study were safety and tolerability of this new compound, as well as its effect in lowering serum lipid and lipoprotein concentrations.
Adult subjects were recruited and enrolled into this double-blind, randomized placebo-controlled dose ranging study at one of three research units in Australia between April and December of 2018. The key entry criteria were hypercholesterolemia, with serum LDL-c >2.59 mmol/L (>99.9 mg/dL) and overweight or obesity (BMI between 25 and 40 kg/m^2). […] Subjects were asked to discontinue the use of lipid-lowering medications at least 28 days prior to their first dose of BUDCA and for the duration of the study.
Subjects underwent an initial assessment and were then randomized to receive ascending doses of BUDCA in three sequential dosing groups: Group I received 500 mg/day of BUDCA or matching placebo in a ratio of 3:1. Group II received 1,000 mg/day of BUDCA or placebo, 3:1 and Group III received 2,000 mg/day BUDCA or placebo, 3:1. Study medication or placebo was given in two equal doses daily for 28 days. The investigational product BUDCA was administered in the form of film-coated tablets, each tablet containing 250 mg of BUDCA. The placebo was identical in appearance to the active agent. Subjects were instructed to take their tablets after breakfast and after dinner respectively with a glass of water.
The groups were enrolled sequentially, but follow-up overlapped (the next cohort could begin during the follow-up period of the prior cohort) (FIG. 1). The decision to move to the next dose level was based upon tolerability and safety findings, as assessed by a Safety Monitoring Committee. Individual subjects were admitted overnight for their first and last doses and so as to draw blood samples for pharmacokinetic studies; in between, they were seen every few days. Subjects were asked to arrive in a fasting state (typically overnight). After having vital signs measured and baseline laboratory tests taken, the subject was given a morning meal and then observed while taking their first dose of BUDCA with a glass of water. They stayed overnight to allow sampling for PK studies which were drawn at the following time points −18 hours, −12, −6, 0 time (pre-dose), +0.25 (post-dose), +0.5, +1, +2, +3, +4, +8, +12, +24 hours. Blood samples for PK studies were collected in dipotassium ethylene diamine tetra-acetic acid (K2EDTA) as the anticoagulant and the assays were done on plasma.
Blood samples for serum biochemistry (including lipid levels) and blood counts were drawn with subjects in a fasting state, at baseline and every 14 days through the study. Samples were shipped in a refrigerated state to laboratory where testing was done using routine clinical methodology, as follows: HbA1c was measured by ion-exchange HPLC (Bio-Rad D-100). For samples received by the laboratory prior to Sep. 2, 2018, the following analytes were measured on the Roche Diagnostics Modular P100 platform (ALT by photometric assay, TC by Trinder peroxidase assay, LDL-c by photometric assay, HDL-c by homogenous enzymatic colorimetric assay and TG by photometric assay). For samples received by the laboratory after Sep. 2, 2018, the following analytes were measured on the Beckman Coulter AU 5800 platform (ALT by photometric assay, TC by cholesterol-oxidase/peroxidase assay, LDL-c by homogenous enzymatic colorimetric assay, HDL-c by immune inhibition and cholesterol oxidase assay and TG by an enzymatic method using opiase/GK/GPO-PAP-4 amino phenazone). […]

[1] = highest dose (2,000 mg per day), day 28

**Q.** For `COc1ccc2cc3[n+](cc2c1OC)CCc1cc2c(cc1-3)OCO2.C[C@H](CCC(=O)[O-])[C@H]1CC[C@H]2[C@@H]3[C@@H](O)C[C@@H]4C[C@H](O)CC[C@]4(C)[C@H]3CC[C@]12C` [BUDCA, berberine ursodeoxycholate], which “HDL-c (serum level)” value (500 mg/day, Day 14, baseline 1.25, P vs. placebo n.s.) is on record?
**A.** The value was 1.22.

**Q.** And the “TG (serum level)” value (500 mg/day, Day 14, baseline 2.11, P vs. placebo n.s.)?
**A.** The value was 1.89.

**Q.** And the “LDL-c (serum level)” value (500 mg/day, Day 14, baseline 4.01, P vs. placebo n.s.)?
**A.** The value was 3.87.

**Q.** What about the “Non-HDL-c (serum level)” value (500 mg/day, Day 14, baseline 4.85, P vs. placebo n.s.) of the same compound?
**A.** Its value is 4.75.

**Q.** What about the “TC (serum level)” value (500 mg/day, Day 14, baseline 6.13, P vs. placebo n.s.) of the same compound?
**A.** The value was 5.96.

**Q.** What about the “HDL-c (serum level)” value (500 mg/day, Day 28, baseline 1.25, P vs. placebo n.s.) of the same compound?
**A.** The value was 1.17.

**Q.** What about the “TG (serum level)” value (500 mg/day, Day 28, baseline 2.11, P vs. placebo n.s.) of the same compound?
**A.** Its value is 2.27.

**Q.** And the “LDL-c (serum level)” value (500 mg/day, Day 28, baseline 4.01, P vs. placebo n.s.)?
**A.** Its value is 3.72.

**Q.** What about the “Non-HDL-c (serum level)” value (500 mg/day, Day 28, baseline 4.85, P vs. placebo 0.03) of the same compound?
**A.** Its value is 4.71.

**Q.** And the “TC (serum level)” value (500 mg/day, Day 28, baseline 6.13, P vs. placebo n.s.)?
**A.** The value was 5.88.

**Q.** What about the “HDL-c (serum level)” value (1,000 mg/day, Day 14, baseline 1.32, P vs. placebo n.s.) of the same compound?
**A.** Its value is 1.29.

**Q.** What about the “TG (serum level)” value (1,000 mg/day, Day 14, baseline 1.76, P vs. placebo n.s.) of the same compound?
**A.** Its value is 1.73.

**Q.** What about the “LDL-c (serum level)” value (1,000 mg/day, Day 14, baseline 3.68, P vs. placebo n.s.) of the same compound?
**A.** The value was 3.42.

**Q.** What about the “Non-HDL-c (serum level)” value (1,000 mg/day, Day 14, baseline 4.48, P vs. placebo n.s.) of the same compound?
**A.** The value was 4.23.

**Q.** What about the “TC (serum level)” value (1,000 mg/day, Day 14, baseline 5.81, P vs. placebo n.s.) of the same compound?
**A.** Its value is 5.51.

**Q.** And the “HDL-c (serum level)” value (1,000 mg/day, Day 28, baseline 1.32, P vs. placebo n.s.)?
**A.** Its value is 1.23.

**Q.** And the “TG (serum level)” value (1,000 mg/day, Day 28, baseline 1.76, P vs. placebo 0.028)?
**A.** Its value is 1.86.

**Q.** And the “LDL-c (serum level)” value (1,000 mg/day, Day 28, baseline 3.68, P vs. placebo n.s.)?
**A.** Its value is 3.51.

**Q.** What about the “Non-HDL-c (serum level)” value (1,000 mg/day, Day 28, baseline 4.48, P vs. placebo 0.025) of the same compound?
**A.** Its value is 4.31.

**Q.** What about the “TC (serum level)” value (1,000 mg/day, Day 28, baseline 5.81, P vs. placebo n.s.) of the same compound?
**A.** The value was 5.54.

**Q.** What about the “HDL-c (serum level)” value (2,000 mg/day, Day 14, baseline 1.24, P vs. placebo n.s.) of the same compound?
**A.** The value was 1.33.

**Q.** What about the “TG (serum level)” value (2,000 mg/day, Day 14, baseline 1.60, P vs. placebo n.s.) of the same compound?
**A.** The value was 1.42.

**Q.** And the “LDL-c (serum level)” value (2,000 mg/day, Day 14, baseline 3.85, P vs. placebo 0.0093)?
**A.** Its value is 3.40.

**Q.** What about the “Non-HDL-c (serum level)” value (2,000 mg/day, Day 14, baseline 4.62, P vs. placebo 0.0018) of the same compound?
**A.** Its value is 4.04.

**Q.** And the “TC (serum level)” value (2,000 mg/day, Day 14, baseline 5.91, P vs. placebo 0.01)?
**A.** Its value is 5.37.

**Q.** And the “HDL-c (serum level)” value (2,000 mg/day, Day 28, baseline 1.24, P vs. placebo n.s.)?
**A.** Its value is 1.29.

**Q.** What about the “TG (serum level)” value (2,000 mg/day, Day 28, baseline 1.60, P vs. placebo 0.0018) of the same compound?
**A.** The value was 1.54.

**Q.** And the “LDL-c (serum level)” value (2,000 mg/day, Day 28, baseline 3.85, P vs. placebo 0.091)?
**A.** The value was 3.44.

**Q.** And the “Non-HDL-c (serum level)” value (2,000 mg/day, Day 28, baseline 4.62, P vs. placebo 0.0002)?
**A.** The value was 4.14.

**Q.** What about the “TC (serum level)” value (2,000 mg/day, Day 28, baseline 5.91, P vs. placebo 0.003) of the same compound?
**A.** Its value is 5.42.

**Q.** What about the “ALT level during therapy” value (500-2,000 mg/day, 28 days) of the same compound?
**A.** The value was “did not change significantly”.

**Q.** What about the “HbA1C level during therapy” value (500-2,000 mg/day, 28 days) of the same compound?
**A.** The value was “did not change significantly”.

**Q.** And the “serum lipid levels among subjects receiving active therapy” value (500-2,000 mg/day, maximum reductions relative to placebo after 14 days)?
**A.** Its value is “decreased in a dose-dependent fashion”.

**Q.** And the “change in HDL-c concentration” value [1]?
**A.** Its value is “no significant changes”.

**Q.** What about the “change in TG concentration” value [1] of the same compound?
**A.** Its value is “no significant changes”.

**Q.** And the “reduction in the serum concentration of TC” value (highest dose (2,000 mg per day), day 28, P=0.0004)?
**A.** The value was 8.2%.

**Q.** And the “reduction in the serum concentration of LDL-c” value (highest dose (2,000 mg per day), day 28, P=0.0006)?
**A.** The value was 10.4%.
